{"source": "patent US11162123B2", "about": "“Glutamine synthetase reaction and method for quantifying ammonia utilizing the same” (ARKRAY, Inc., priority 2017, dated 2021)", "key": {"glutamine synthetase [1]": {"test_system": "glutamine synthetase", "procedure": "(§1) Reagent A was mixed with a sample immediately before the reaction, and then reagent B was added to the resulting mixture to perform the reaction. The ammonia concentration was measured based on the increase in the absorbance at 340 nm during the period of 300 seconds after the beginning of the reaction. To the sample, calcium was added at various concentrations (180, 340, 530, or 700 ppm). The liquid volumes of the reagents were as follows: reagent A, 140 μL; reagent B, 35 μL; sample, 10 μL.\nSubsequently, in what step calcium affects the ammonia measurement reaction was investigated. […] Since ADP is a substrate of ADP-dependent hexokinase, the effect of calcium in the sample on the reactions of enzymes excluding glutamine synthetase can be investigated. Similarly, each of G6P and NADH was added as a sample to the reaction system to investigate the reaction using G6P or NADH as a substrate."}, "glutamine synthetase [2]": {"test_system": "glutamine synthetase", "remark": "listed apart in the source", "procedure": "After mixing the components, a base material was impregnated therewith. After drying the base material, a test liquid (10,000 N-μg/dL aqueous ammonia solution supplemented with 0, 10, 30, 60, or 80 ppm calcium) was added thereto, followed by allowing the reaction to proceed at room temperature for 300 seconds and then measuring the reflectance (ΔR). By calculating the difference (ΔR) between the reflectance R of the sample to which calcium was not added and the reflectance R of each sample to which calcium was added, the effect of calcium in the ammonia measurement system can be investigated."}, "[3]": {"target": "Glutamine synthetase (GST) (Homo sapiens, UniProt P15104)", "sequence (P15104 whole entry, species assumed)": "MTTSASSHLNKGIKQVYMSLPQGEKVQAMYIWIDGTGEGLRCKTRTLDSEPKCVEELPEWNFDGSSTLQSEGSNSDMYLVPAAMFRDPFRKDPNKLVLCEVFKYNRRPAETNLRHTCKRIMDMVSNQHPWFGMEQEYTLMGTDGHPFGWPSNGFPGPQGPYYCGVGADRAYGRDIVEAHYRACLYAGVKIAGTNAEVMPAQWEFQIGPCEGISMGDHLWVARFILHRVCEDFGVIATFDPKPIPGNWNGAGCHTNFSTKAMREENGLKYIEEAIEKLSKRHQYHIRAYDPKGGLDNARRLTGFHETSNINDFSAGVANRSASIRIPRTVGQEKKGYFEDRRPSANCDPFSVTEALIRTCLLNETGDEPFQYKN", "settings": "known from the art; cited from earlier work"}, "[4]": {"test_system": "enzymes excluding glutamine synthetase", "assay": "liquid reaction system with ADP, G6P or NADH added as sample (enzymes excluding glutamine synthetase)", "assay_type": "biochemical", "procedure": "as §1\nSince ADP is a substrate of ADP-dependent hexokinase, the effect of calcium in the sample on the reactions of enzymes excluding glutamine synthetase can be investigated. Similarly, each of G6P and NADH was added as a sample to the reaction system to investigate the reaction using G6P or NADH as a substrate."}}, "note": "Where two headings read alike, the source gives them in different places."}
{"smiles": "O=C(O)CN(CCN(CC(=O)O)CC(=O)O)CC(=O)O", "note": "[EDTA, ethylenediaminetetraacetic acid, reference compound]", "values": [{"measurement": "measured value of ammonia versus calcium concentration", "setting": "glutamine synthetase [1]; addition of EDTA (2.00 mM in reagent A), calcium 180-700 ppm in sample", "result": "does not change dependently on the calcium concentration"}, {"measurement": "change in reflectance (change in ΔR) caused by calcium", "setting": "glutamine synthetase [2]; addition of 5, 10 or 20 mM EDTA", "result": "improved the change in the reflectance"}]}
{"smiles": "CS(=N)(=O)CC[C@H](N)C(=O)O", "note": "(stereo partly drawn) [L-methionine sulfoximine]", "values": [{"measurement": "inhibition of glutamine synthetase", "setting": "[3]", "result": "inhibited"}]}
{"smiles": "[Ca+2]", "note": "[calcium]", "values": [{"measurement": "step of the ammonia measurement reaction affected by calcium", "setting": "glutamine synthetase [1]; conclusion from substrate-addition experiments", "result": "affects glutamine synthetase in the first step"}, {"measurement": "measured value of ammonia versus calcium concentration", "setting": "glutamine synthetase [1]; no addition of EDTA, calcium 180, 340, 530 or 700 ppm in sample, absorbance 340 nm, 300 seconds", "result": "decreases dependently on the calcium concentration"}, {"measurement": "measured value (reflectance, ΔR) versus calcium concentration", "setting": "glutamine synthetase [2]; no EDTA, test liquid with 0, 10, 30, 60 or 80 ppm calcium, room temperature, 300 seconds", "result": "changed dependently on the calcium concentration"}, {"measurement": "effect of calcium on measured value, ADP added as sample", "setting": "[4]; ADP as sample, with and without EDTA", "result": "disappearance of the effect of calcium"}, {"measurement": "effect of calcium on measured value, G6P or NADH added as sample", "setting": "[4]; G6P or NADH as sample", "result": "no effect of calcium was found"}]}
{"smiles": "CP(=O)(O)CC[C@H](N)C(=O)O", "note": "[phosphinothricin]", "values": [{"measurement": "inhibition of glutamine synthetase", "setting": "[3]", "result": "inhibited"}]}
